Values after ≈ are worked out from the molar mass of the structure shown. Bridge positions count the residues as written; N and C are the ends. Square brackets hold non-standard residues; d marks the D form. Peptide text beside a SMILES is read from it. * marks the point of attachment. Ileψ(thiazoline)Cys = CC[C@H](C)[C@H](N)C1=N[C@H](C(=O)*)CS1; dOrn = NCCC[C@@H](N)C(=O)O
How the values were obtained:
Streptococcus pyogenes = experiment: protection of mice experimentally infected with test organism (Table X); type: in vivo; conditions: mice, subcutaneous, 1 and 4 hours postinfection
Procedure: (§1) The A82846 antibiotics have also shown in vivo antimicrobial activity against experimentally-induced infections in laboratory animals. When two doses of test compound were administered to mice experimentally infected with the test organism, the activity observed was measured as an ED50 value [effective dose in mg/kg to protect 50% of the test animals: see Warren Wick, et al., J. Bacteriol. 81, 233-235 (1961)].
(§2) ^a mg/kg × 2; doses administered subcutaneously to mice 1 and 4

Staphylococcus aureus = experiment: as above; type: in vivo; conditions: mice, subcutaneous, 1 and 4 hours postinfection
Procedure: as §1, §2

Streptococcus pneumoniae = experiment: as above; type: in vivo; conditions: mice, subcutaneous, 1 and 4 hours postinfection
Procedure: as §1, §2

[1] = test system: Haemophilus influenzae 76; type: cell-based; conditions: H. influenzae 76, ampicillin-resistant strain; agar dilution
Procedure: (§3) The MIC's in Tables VII and VIII were determined by standard agar-dilution assays.

[2] = test system: Staphylococcus aureus X1.1; type: cell-based; conditions: S. aureus X1.1; agar dilution
Procedure: as §3

[3] = test system: Staphylococcus aureus V41; type: cell-based; conditions: S. aureus V41, penicillin-resistant strain; agar dilution
Procedure: as §3

[4] = test system: Klebsiella pneumoniae X26; type: cell-based; conditions: K. pneumoniae X26; agar dilution
Procedure: as §3

[5] = test system: Staphylococcus epidermidis 222; type: cell-based; conditions: S. epidermidis 222; agar dilution
Procedure: as §3

Escherichia coli EC14 = type: cell-based; conditions: E. coli EC14; agar dilution
Procedure: as §3

[6] = test system: Staphylococcus epidermidis 270; type: cell-based; conditions: S. epidermidis 270; agar dilution
Procedure: as §3

[7] = test system: Haemophilus influenzae C.L.; type: cell-based; conditions: H. influenzae C.L., ampicillin-sensitive strain; agar dilution
Procedure: as §3

[8] = test system: Pseudomonas aeruginosa X239; type: cell-based; conditions: P. aeruginosa X239; agar dilution
Procedure: as §3

[9] = test system: Streptococcus Group D 2041; type: cell-based; conditions: agar dilution
Procedure: as §3

[10] = test system: Staphylococcus aureus X400; type: cell-based; conditions: S. aureus X400, methicillin-resistant strain; agar dilution
Procedure: as §3

[11] = test system: Streptococcus pyogenes C203; type: cell-based; conditions: S. pyogenes C203; agar dilution
Procedure: as §3

[12] = test system: Streptococcus Group D X66; type: cell-based; conditions: agar dilution
Procedure: as §3

[13] = test system: Streptococcus pneumoniae Park I; type: cell-based; conditions: S. pneumoniae Park I; agar dilution
Procedure: as §3

[14] = test system: Cultures A82846 and A82846.1; experiment: resistance to antibiotics, antibiotic sensitivity discs on seeded agar plates
N. orientalis = experiment: resistance to antibiotics, sensitivity discs (Table III); type: cell-based, Nocardia orientalis
N. aerocolonigenes = experiment: as above; type: cell-based, Nocardia aerocolonigenes
A82846 = experiment: as above; type: cell-based, Nocardia orientalis; conditions: culture A82846

In the case of `CN[C@@H](CC(C)C)C(=O)N[C@H]1C(=O)N[C@H](CC(N)=O)C(=O)N[C@H]2C(=O)N[C@H]3C(=O)N[C@@H](C(=O)NC(C(=O)O)c4cc(O)cc(O)c4-c4cc3ccc4O)[C@@H](O[C@H]3C[C@](C)(N)[C@H](O)[C@@H](C)O3)c3ccc(cc3)Oc3cc2cc(c3O[C@H]2O[C@@H](CO)[C@@H](O)[C@H](O)[C@@H]2O[C@H]2C[C@](C)(N)[C@H](O)[C@@H](C)O2)Oc2ccc(cc2)[C@@H]1O` (stereo partly drawn) [A82846C], the “ED50 Value” (Streptococcus pyogenes) is reported as 2.71 mg/kg × 2, the “ED50 Value” (Staphylococcus aureus) is reported as 2.18 mg/kg × 2 and the “ED50 Value” (Streptococcus pneumoniae) is reported as 5.87 mg/kg × 2. For the same compound, the MIC [1] was “-- (Not active at 128 mcg/mL, the highest level tested)”, the MIC [2] was 1 µg/mL (≈ 0.656 µM) and the MIC [3] was 1 µg/mL (≈ 0.656 µM). The MIC [4] was “-- (Not active at 128 mcg/mL, the highest level tested)”, the MIC [5] was 1 µg/mL (≈ 0.656 µM) and the MIC (Escherichia coli EC14) was “-- (Not active at 128 mcg/mL, the highest level tested)”. The MIC [6] was 1 µg/mL (≈ 0.656 µM), the MIC [7] was “-- (Not active at 128 mcg/mL, the highest level tested)” and the MIC [8] was “-- (Not active at 128 mcg/mL, the highest level tested)”. For the same compound, the MIC [9] was 4 µg/mL (≈ 2.63 µM), the MIC [10] was 1 µg/mL (≈ 0.656 µM) and the MIC [11] was 1 µg/mL (≈ 0.656 µM). For the same compound, the MIC [12] was 2 µg/mL (≈ 1.31 µM) and the MIC [13] was 2 µg/mL (≈ 1.31 µM).

With `CC[C@H](C)[C@H](N)C1=N[C@H](C(=O)N[C@@H](CC(C)C)C(=O)N[C@H](CCC(=O)O)C(=O)N[C@H](C(=O)N[C@H]2CCCCNC(=O)[C@H](CC(N)=O)NC(=O)[C@@H](CC(=O)O)NC(=O)[C@H](Cc3cnc[nH]3)NC(=O)[C@@H](Cc3ccccc3)NC(=O)[C@H]([C@@H](C)CC)NC(=O)[C@@H](CCCN)NC2=O)[C@@H](C)CC)CS1` [bacitracin] ({Ileψ(thiazoline)Cys}-L[dE]IK[dOrn]I[dF]H[dD]N; lactam 4-C) the antibiotic resistance ([14]; disc 10 units) was “resistant”.

For `CC(=O)OCC1=C(C(=O)O)N2C(=O)[C@@H](NC(=O)Cc3cccs3)[C@H]2SC1` [cephalothin], the antibiotic resistance ([14]; disc 30 μg) was “resistant”.

In the case of `O=C(N[C@H](CO)[C@H](O)c1ccc([N+](=O)[O-])cc1)C(Cl)Cl` [chloramphenicol], the antibiotic resistance ([14]; disc 30 μg) is reported as “sensitive”.

For `CC[C@H]1OC(=O)[C@H](C)[C@@H](O[C@H]2C[C@@](C)(OC)[C@@H](O)[C@H](C)O2)[C@H](C)[C@@H](O[C@@H]2O[C@H](C)C[C@H](N(C)C)[C@H]2O)[C@](C)(O)C[C@@H](C)C(=O)[C@H](C)[C@@H](O)[C@]1(C)O` [erythromycin], the antibiotic resistance ([14]; disc 15 μg) was “resistant”.

For `CCC[C@@H]1C[C@@H](C(=O)N[C@@H]([C@H]2O[C@H](SC)[C@H](O)[C@@H](O)[C@H]2O)[C@@H](C)O)N(C)C1` [lincomycin], the antibiotic resistance ([14]; disc 2 μg) was “resistant”.

`C1N2CN3CN1CN(C2)C3` [mandelamine] was tested, and the antibiotic resistance ([14]; disc 3 μg) was “sensitive”.

`CCn1cc(C(=O)O)c(=O)c2ccc(C)nc21` [nalidixic acid] was tested, and the antibiotic resistance ([14]; disc 30 μg) was “resistant”.

In the case of `CO[C@@H]1[C@@H](OC(N)=O)[C@@H](O)[C@H](Oc2ccc3c(O)c(NC(=O)c4ccc(O)c(CC=C(C)C)c4)c(=O)oc3c2C)OC1(C)C` [novobiocin], the antibiotic resistance ([14]; disc 30 μg) is reported as “sensitive”.

With `CO[C@H]1C[C@H](O[C@H]2[C@H](C)[C@@H](O[C@@H]3O[C@H](C)C[C@H](N(C)C)[C@H]3O)[C@@H](C)C[C@@]3(CO3)C(=O)[C@H](C)[C@@H](O)[C@@H](C)[C@@H](C)OC(=O)[C@@H]2C)O[C@@H](C)[C@@H]1O` [oleandomycin] the antibiotic resistance ([14]; disc 15 μg) was “resistant”.

For `CC1(C)S[C@@H]2[C@H](NC(=O)Cc3ccccc3)C(=O)N2[C@H]1C(=O)O` [penicillin G], the antibiotic resistance ([14]; disc 10 units) was “resistant”.

`CO[C@H]1/C=C/O[C@@]2(C)Oc3c(C)c(O)c4c(O)c(c(/C=N/N5CCN(C)CC5)c(O)c4c3C2=O)NC(=O)/C(C)=C\C=C\[C@H](C)[C@H](O)[C@@H](C)[C@@H](O)[C@@H](C)[C@H](OC(C)=O)[C@@H]1C` [rifampin] was tested, and the antibiotic resistance ([14]; disc 5 μg) was “sensitive”.

With `[H]/N=C(/N)N[C@H]1[C@H](O)[C@@H](O)[C@H](O[C@@H]2O[C@@H](C)[C@](O)(C=O)[C@H]2O[C@@H]2O[C@@H](CO)[C@H](O)[C@@H](O)[C@@H]2NC)[C@@H](N/C(N)=N\[H])[C@@H]1O` [streptomycin] the antibiotic resistance ([14]; disc 10 μg) was “resistant”.

With `Nc1ccc(S(=O)(=O)Nc2ncccn2)cc1` [sulfadiazine] the antibiotic resistance ([14]; disc 300 μg) was “resistant”.

For `CN(C)C1C(=O)C(C(N)=O)=C(O)C2(O)C(=O)C3=C(O)c4c(O)cccc4C(C)(O)C3CC12` (stereo not drawn) [tetracycline], the antibiotic resistance ([14]; disc 30 μg) was “sensitive”.

For `NC[C@H]1O[C@H](O[C@H]2[C@H](O)[C@@H](O[C@H]3O[C@H](CO)[C@@H](O)[C@H](N)[C@H]3O)[C@H](N)C[C@@H]2N)[C@H](N)C[C@@H]1O` [tobramycin], the antibiotic resistance ([14]; disc 10 μg) was “resistant”.

`COc1cc(Cc2cnc(N)nc2N)cc(OC)c1OC` [trimethoprim] was tested, and the antibiotic resistance ([14]; disc 5 μg) was “resistant”.

In the case of gentamicin, the “Resistance to” value (N. orientalis; 10 μg) is reported as “-”, the antibiotic resistance ([14]; disc 10 μg) is reported as “resistant” and the “Resistance to” value (N. aerocolonigenes; 10 μg) is reported as “-”. For the same compound, the “Resistance to” value (A82846; 10 μg) was “+”.

For neomycin, the “Resistance to” value (N. orientalis; 30 μg) was “-”, the antibiotic resistance ([14]; disc 30 μg) was “sensitive” and the “Resistance to” value (N. aerocolonigenes; 30 μg) was “-”. For the same compound, the “Resistance to” value (A82846; 30 μg) was “-”.

In the case of polymixin B, the “Resistance to” value (N. orientalis; 300 units) is reported as “+”, the antibiotic resistance ([14]; disc 300 units) is reported as “resistant” and the “Resistance to” value (N. aerocolonigenes; 300 units) is reported as “+”. For the same compound, the “Resistance to” value (A82846; 300 units) was “+”.
